Measurements: US20260165350A1, “FLAVONOID COMPOSITIONS AND USES THEREOF” (FIRMENICH SA, priority 2022, published 2026)
Values belong to the compound of their own block, whether it stands above or below them.

Legend:
Type in all cases: physicochemical
[1] = Stability of naringenin solutions stored three months at room temperature; design: key: X: Dissolved; ◯: Partially dissolved, with sediments observed; #: Not dissolved; *: reprecipitated; conditions: n-Propyl alcohol
Text: (§1) Naringenin was mixed with different solvents and heated until the product has completely dissolved. Subsequently, the samples were left to cool down to room temperature and stored over a period of three months.

[2] = Solubility at 25° C. from transparency during a heating ramp (Crystalline PV), exponential fit
Method: Naringenin was mixed with different solvents and mixtures of solvent and transferred to an 8-mL vial equipped with an overhead stirrer. The sample was placed in a Crystalline PV instrument (Technobis, The Netherlands). A heating step was carried with a heating ramp of +0.1° C./min under mechanical stirring, and the samples were monitored by following transparency via a LED light beam that passes through the vial. Full (100%) transparency is attained when Naringenin is completely dissolved in the solvent. On the other hand, when the measured values of transparency are below 100% the dissolution process is still incomplete. Once the signal has attained 100% transparency, the dissolution process was complete and the respective temperature was taken as the solubilization temperature.
For each solvent or mixture of solvent, the measured solubility as a function of temperature has been fitted to an exponential function. The solubility at 25° C. was obtained by extrapolation or interpolation of this exponential function.
The same method as described in Example 3 was used to determine the solubility of Phloretin at 25° C.

[3] = Solvent comparison: visual observation of naringenin dissolution, reassessed after three months; design: key: X: Dissolved; ◯: Partially dissolved, with sediments observed; #: Not dissolved; *: reprecipitated
Method: Several solvents and solvent blends were prepared after which a measured amount of naringenin was added and mechanically agitated. Each mixture was then visually observed for dissolution. All samples were stored at room temperature protected from direct light and were reassessed for stability after a period of three months.

[4] = Stability of naringenin solutions stored three months at room temperature; design: key: X: dissolved; *: reprecipitated
Text: as §1

[5] = (L)-Carvone 50% + Isopropyl alcohol 50%
[6] = (D)-Carvone, naringenin 15% (w/w)
[7] = (L)-Carvone + isopropyl alcohol (50:50), naringenin 10% (w/w)
[8] = (L)-Carvone, naringenin 10% (w/w)
[9] = Carvone + isopropyl alcohol + benzyl alcohol (20:40:40), naringenin 10% (w/w)
[10] = Ethanol + benzyl alcohol (50:50), naringenin 10% (w/w)
[11] = Ethyl lactate + Glycerol 20%, naringenin 10% (w/w)
[12] = Ethyl lactate, naringenin 10% (w/w)
[13] = Isopropyl alcohol + benzyl alcohol (50:50), naringenin 10% (w/w)
[14] = Isopropyl alcohol, naringenin 10% (w/w)
[15] = Lactic acid, naringenin 5% (w/w)
[16] = Mint Spicata (60% Carvone), naringenin 6% (w/w)
[17] = Mint Spicata China (80% Carvone) + isopropyl alcohol (60:40), naringenin 15% (w/w)
[18] = Mint Spicata China (80% Carvone), naringenin 10% (w/w)
[19] = Propanol NAT, naringenin 6% (w/w)
[20] = Propylene glycol, naringenin 10% (w/w)
[21] = n-Propyl alcohol, 4% of Naringenin
[22] = n-Propyl alcohol, 5% of Naringenin
[23] = n-Propyl alcohol, 6% of Naringenin

Solution state (after three months at RT) ([1]; 8% of Naringenin): * | Solution state (after three months at RT) ([1]; 10% of Naringenin): * | Solution state (after three months at RT) ([1]; 12% of Naringenin): * | Solubility of Naringenin at 25° C. (%) ([2]; (D)-Carvone 100%): 8.5% | Solubility of Naringenin at 25° C. (%) ([2]; (L)-Carvone 30% + n-Propyl alcohol 70%): 11.7% | Solubility of Naringenin at 25° C. (%) ([2]; (L)-Carvone 50% + Ethanol 50%): 18.7% | Solubility of Naringenin at 25° C. (%) [2, 5]: 16.6% | Solubility of Naringenin at 25° C. (%) ([2]; (L)-Carvone 50% + Propylene glycol 50%): 13.0% | Solubility of Naringenin at 25° C. (%) ([2]; (L)-Carvone 50% + n-Propyl alcohol 50%): 14.9% | Solubility of Naringenin at 25° C. (%) ([2]; (L)-Carvone 70% + n-Propyl alcohol 30%): 15.7% | Solubility of Naringenin at 25° C. (%) ([2]; (L)-Carvone 90% + n-Propyl alcohol 10%): 13.0% | Solubility of Naringenin at 25° C. (%) ([2]; (L)-Carvone 100%): 8.5% | Solubility of Naringenin at 25° C. (%) ([2]; Benzyl alcohol 100%): 3.9% | Solubility of Naringenin at 25° C. (%) ([2]; Ethyl lactate 100%): 5.3% | Solubility of Naringenin at 25° C. (%) ([2]; Eucalyptol 100%): 1.2% | Solubility of Naringenin at 25° C. (%) ([2]; Glycerol 100%): 0.1% | Solubility of Naringenin at 25° C. (%) ([2]; Isopropyl alcohol 50% + Benzyl alcohol 50%): 6.9% | Solubility of Naringenin at 25° C. (%) ([2]; Isopropyl alcohol 100%): 5.2% | Solubility of Naringenin at 25° C. (%) ([2]; Limonene 100%): <0.1% | Solubility of Naringenin at 25° C. (%) ([2]; Mint Spicata (80% carvone) 50% + Propylene glycol 50%): 12.0% | Solubility of Naringenin at 25° C. (%) ([2]; Mint Spicata (80% carvone) 60% + Isopropyl alcohol 40%): 15.4% | Solubility of Naringenin at 25° C. (%) ([2]; Mint Spicata (80% carvone) 100%): 7.5% | Solubility of Naringenin at 25° C. (%) ([2]; Neobee 100%): 0.1% | Solubility of Naringenin at 25° C. (%) ([2]; Propylene glycol 100%): 3.6% | Solubility of Naringenin at 25° C. (%) ([2]; Triethyl citrate 100%): 1.7% | Solubility of Naringenin at 25° C. (%) ([2]; n-Propyl alcohol 100%): 4.2% | Observation [3, 6]: X | Observation (after 3 months at RT) [3, 6]: X | Observation [3, 7]: X | Observation (after 3 months at RT) [3, 7]: X | Observation [3, 8]: X | Observation (after 3 months at RT) [3, 8]: X | Observation [3, 9]: X | Observation (after 3 months at RT) [3, 9]: X | Observation [3, 10]: X | Observation (after 3 months at RT) [3, 10]: * | Observation [3, 11]: ◯ | Observation (after 3 months at RT) [3, 11]: ◯ | Observation [3, 12]: # | Observation (after 3 months at RT) [3, 12]: # | Observation ([3]; Glycerol, naringenin 5% (w/w)): # | Observation (after 3 months at RT) ([3]; Glycerol, naringenin 5% (w/w)): # | Observation [3, 13]: X | Observation (after 3 months at RT) [3, 13]: * | Observation [3, 14]: # | Observation (after 3 months at RT) [3, 14]: # | Observation [3, 15]: # | Observation (after 3 months at RT) [3, 15]: # | Observation [3, 16]: X | Observation (after 3 months at RT) [3, 16]: X | Observation [3, 17]: X | Observation (after 3 months at RT) [3, 17]: X | Observation [3, 18]: X | Observation (after 3 months at RT) [3, 18]: X | Observation [3, 19]: ◯ | Observation (after 3 months at RT) [3, 19]: ◯ | Observation [3, 20]: # | Observation (after 3 months at RT) [3, 20]: # | Solution state (after three months at RT) ([4]; (L)-Carvone, 4% of Naringenin): X | Solution state (right after heating) ([4]; (L)-Carvone, 4% of Naringenin): X | Solution state (after three months at RT) ([4]; (L)-Carvone, 5% of Naringenin): X | Solution state (right after heating) ([4]; (L)-Carvone, 5% of Naringenin): X | Solution state (after three months at RT) ([4]; (L)-Carvone, 6% of Naringenin): X | Solution state (right after heating) ([4]; (L)-Carvone, 6% of Naringenin): X | Solution state (after three months at RT) ([4]; (L)-Carvone, 8% of Naringenin): X | Solution state (right after heating) ([4]; (L)-Carvone, 8% of Naringenin): X | Solution state (after three months at RT) ([4]; (L)-Carvone, 10% of Naringenin): X | Solution state (right after heating) ([4]; (L)-Carvone, 10% of Naringenin): X | Solution state (after three months at RT) ([4]; (L)-Carvone, 12% of Naringenin): X | Solution state (right after heating) ([4]; (L)-Carvone, 12% of Naringenin): X | Solution state (after three months at RT) [4, 21]: X | Solution state (right after heating) [4, 21]: X | Solution state (after three months at RT) [4, 22]: X | Solution state (right after heating) [4, 22]: X | Solution state (after three months at RT) [4, 23]: X | Solution state (right after heating) [4, 23]: X | Solution state (right after heating) ([4]; n-Propyl alcohol, 8% of Naringenin): X | Solution state (right after heating) ([4]; n-Propyl alcohol, 10% of Naringenin): X | Solution state (right after heating) ([4]; n-Propyl alcohol, 12% of Naringenin): X
Compound: O=C1C[C@@H](c2ccc(O)cc2)Oc2cc(O)cc(O)c21 [Naringenin, naringenin]

Solubility of Phloretin at 25° C. (%) ([2]; (L)-Carvone 50% + Ethanol 50%): 21.9% | Solubility of Phloretin at 25° C. (%) [2, 5]: 22.8% | Solubility of Phloretin at 25° C. (%) ([2]; (L)-Carvone 100%): 7.7% | Solubility of Phloretin at 25° C. (%) ([2]; Ethanol 100%): 15.9% | Solubility of Phloretin at 25° C. (%) ([2]; Isopropyl alcohol 100%): 12.7% | Solubility of Phloretin at 25° C. (%) ([2]; Propylene glycol 100%): 8.9%
Compound: O=C(CCc1ccc(O)cc1)c1c(O)cc(O)cc1O [Phloretin, phloretin]
